Test results reported in US11708344B2, “Flavone derivatives for the treatment and prophylaxis of hepatitis B virus disease” (Hoffmann-La Roche Inc., priority 2018, dated 2023).

test system: HBeAg (surrogate marker for cccDNA) in HepDES19 cells; test: Engineered HepDES19 primary screen assay (HBeAg ELISA); type: cell-based, HBV; details: Hepatitis B virus, HepDES19, 120 h, read-out: IC50 (HBeAg level, HepDES19 primary screen assay), HepDES19 cells, 5 days compound incubation, HBeAg ELISA
From the text: The assay was employed to screen for novel cccDNA inhibitors. HepDES19 is a cccDNA-producing cell line. In this cell line, HBeAg in the cell culture supernatant as surrogate marker, as HBeAg production depends on cccDNA level and activity. HepDES19 is an engineered cell line which contains a 1.1 unit length HBV genome, and pgRNA transcription from the transgene is controlled by Tetracycline (Tet). In the absence of Tet, pgRNA transcription will be induced, but HBV e antigen (HBeAg) could not be produced from this pgRNA due to very short leader sequence before the HBeAg start codon and the start codon is disrupted. Only after cccDNA is formed, the missing leader sequence and start codon mutation would be restored from the 3′-terminal redundancy of pgRNA, and then HBeAg could be synthesized. Therefore, HBeAg could be used as a surrogate marker for cccDNA (Zhou, T. et al., Antiviral Res. (2006), 72(2), 116-124; Guo, H. et al., J. Virol. (2007), 81(22), 12472-12484).
HepDES19 cells were seeded at 2×10^6 cells per T150 flask and cultured with the culture medium (Dulbecco's Modified Eagle Medium: Nutrient Mixture F-12 [DMEM-F12, Gibco Cat. 11320-82], 10% Fetal Bovine Serum [FBS, Clontech Cat. 631101], 0.1 mM Non-Essential Amino Acids Solution [NEAA, Gibco Cat. 11140-050], 50 μg/mL Penicillin-Streptomycin [PS, Invitrogen Cat. 15140-163], 500 μg/mL Geneticin [G418, Invitrogen Cat. 10131-027]) containing 3 μg/mL Tet (Sigma, Cat. 87128) for 5 days. Cells were then seeded at 4×10^6 cells per T150 in the same culture medium as described above in the absence of Tet for 8 days. Cells were then harvested and frozen at density of 2×10^6 cells per mL. For compound testing, the frozen cells were thawed and seeded into 96-well plates at a density of 6×10^4 cells per well. At 24 hours after seeding, half log serial dilutions of compounds made with Dimethyl sulfoxide (DMSO, Sigma, Cat. D2650) were further diluted with the same culture medium as described above before they were added to the cells to reach desired final compound concentrations and 1% DMSO concentration. Plates were then incubated at 37° C. for another 5 days before measurement of HBeAg level and cell viability. […] HBeAg level were measured with enzyme-linked immunosorbent assay (ELISA) kit (Shanghai Kehua Diagnostic Medical Products Co., Ltd). Cell viability was assessed using Cell Counting Kit-8 (DonJindo, Cat. CK04-20). IC50 values were derived from the dose-response curve using 4 parameter logistic curve fit method.
The compounds of the present invention were tested for their capacity to inhibit extracellular HBeAg level as described herein.

**Q.** How did the IC50 turn out when `O=C(O)[C@H]1CC[C@@H](Oc2cc(Br)ccc2-c2cc(=O)c3cccc(Cl)c3o2)C1` (relative stereo) [Example B028-A, Cis-3-[5-bromo-2-(8-chloro-4-oxo-chromen-2-yl)phenoxy]cyclopentanecarboxylic acid] was run?
**A.** 0.471 µM

**Q.** With `O=C(O)CCOc1cc(Br)c(OC(F)(F)F)cc1-c1cc(=O)c2cccc(Cl)c2o1` [Example A014, 3-[5-bromo-2-(8-chloro-4-oxo-chromen-2-yl)-4-(trifluoromethoxy)phenoxy]propanoic acid] as the compound, how does the IC50 read?
**A.** 3.22 µM

**Q.** For `O=C(O)CCOc1cc(OC(F)(F)F)ccc1-c1cc(=O)c2ccc(Br)c(Cl)c2o1` [Example A023, 3-[2-(7-bromo-8-chloro-4-oxo-chromen-2-yl)-5-(trifluoromethoxy)phenoxy]propanoic acid], which IC50 is on record?
**A.** 29.6 µM

**Q.** Which IC50 does the source give for `Cc1cc(-c2cc(=O)c3cccc(Br)c3o2)c(OCCC(=O)O)cc1Cl` [Example A025, 3-[2-(8-bromo-4-oxo-chromen-2-yl)-5-chloro-4-methyl-phenoxy]propanoic acid] here?
**A.** 3.55 µM

**Q.** With `COC(=O)CCOc1cc(Cl)c(C)cc1-c1cc(=O)c2cccc(Cl)c2o1` [Example A038, methyl 3-[5-chloro-2-(8-chloro-4-oxo-chromen-2-yl)-4-methyl-phenoxy]propanoate] as the compound, how does the IC50 read?
**A.** 4.79 µM

**Q.** With `O=C(O)CCOc1cc(C(F)(F)F)ccc1-c1cc(=O)c2c(O)ccc(Cl)c2o1` [Example A045, 3-[2-(8-chloro-5-hydroxy-4-oxo-chromen-2-yl)-5-(trifluoromethyl)phenoxy]propanoic acid] as the compound, how does the IC50 read?
**A.** 2.03 µM

**Q.** `O=C(O)COc1cc(OC(F)(F)F)ccc1-c1cc(=O)c2cccc(Cl)c2o1` [Example A048, 2-[2-(8-chloro-4-oxo-chromen-2-yl)-5-(trifluoromethoxy)phenoxy]acetic acid] was tested. Which IC50 did it give?
**A.** 9.38 µM

**Q.** How did the IC50 turn out when `O=C(O)CCCCCCOc1cc(C(F)(F)F)ccc1-c1cc(=O)c2cccc(Cl)c2o1` [Example A066, 7-[2-(8-chloro-4-oxo-chromen-2-yl)-5-(trifluoromethyl)phenoxy]heptanoic acid] was run?
**A.** 2.44 µM

**Q.** `Cc1cc(-c2cc(=O)c3cccc(Cl)c3o2)c(OCC2(CC(=O)O)CC2)cc1Br` [Example A068, 2-[1-[[5-bromo-2-(8-chloro-4-oxo-chromen-2-yl)-4-methyl-phenoxy]methyl]cyclopropyl]acetic acid] was tested. Which IC50 did it give?
**A.** 5.7 µM

**Q.** `O=C(O)c1cccc(COc2cc(Br)ccc2-c2cc(=O)c3cccc(Cl)c3o2)c1` [Example A072, 3-[[5-bromo-2-(8-chloro-4-oxo-chromen-2-yl)phenoxy]methyl]benzoic acid] was tested. Which IC50 did it give?
**A.** 0.366 µM

**Q.** With `CS(=O)(=O)C1CCN(C(=O)COc2cc(C(F)(F)F)ccc2-c2cc(=O)c3cccc(Cl)c3o2)C1` (stereo not drawn) [Example A087, 8-chloro-2-[2-[2-(3-methylsulfonylpyrrolidin-1-yl)-2-oxo-ethoxy]-4-(trifluoromethyl)phenyl]chromen-4-one] as the compound, how does the IC50 read?
**A.** 4.98 µM

**Q.** Which IC50 does the source give for `CCNS(=O)(=O)N[C@@H](COc1cc(C(F)(F)F)ccc1-c1cc(=O)c2cccc(Cl)c2o1)C(=O)OC` [Example A098, methyl (2S)-3-[2-(8-chloro-4-oxo-chromen-2-yl)-5-(trifluoromethyl)phenoxy]-2-(ethylsulfamoylamino)propanoate] here?
**A.** 0.036 µM

**Q.** `COc1cc(OC2CC(C(=O)O)C2)c(-c2cc(=O)c3cccc(Cl)c3o2)cc1OC` (stereo not drawn) [Example B006, 3-[2-(8-chloro-4-oxo-chromen-2-yl)-4,5-dimethoxy-phenoxy]cyclobutanecarboxylic acid] was tested. Which IC50 did it give?
**A.** 5.48 µM

**Q.** Which IC50 does the source give for `COc1ccc(-c2cc(=O)c3cccc(Cl)c3o2)c(O[C@H]2C[C@H](C(=O)O)C2)c1` [Example B011-B, Trans-3-[2-(8-chloro-4-oxo-chromen-2-yl)-5-methoxy-phenoxy]cyclobutanecarboxylic acid] here?
**A.** 3.48 µM

**Q.** How did the IC50 turn out when `COc1cc(O[C@H]2C[C@H](C(=O)O)C2)c(-c2cc(=O)c3cccc(Cl)c3o2)cc1Br` [Example B014, Trans-3-[4-bromo-2-(8-chloro-4-oxo-chromen-2-yl)-5-methoxy-phenoxy]cyclobutanecarboxylic acid] was run?
**A.** 15.5 µM

**Q.** Which IC50 does the source give for `CC(C)c1ccc(-c2cc(=O)c3cccc(Cl)c3o2)c(O[C@H]2C[C@@H](C(=O)O)C2)c1` [Example B020-A, Cis-3-[2-(8-chloro-4-oxo-chromen-2-yl)-5-isopropyl-phenoxy]cyclobutanecarboxylic acid] here?
**A.** 2.84 µM

**Q.** `COc1ccc(OC[C@H]2C[C@@H](C(=O)O)C2)c(-c2cc(=O)c3cccc(Cl)c3o2)c1` [Example B027-A] was tested. Which IC50 did it give?
**A.** 2.47 µM

**Q.** `O=c1cc(-c2ccc(C3CC3)cc2O[C@H]2C[C@H](C(=O)O)C2)oc2c(Cl)cccc12` [Example B035-B, trans-3-[2-(8-chloro-4-oxo-chromen-2-yl)-5-cyclopropyl-phenoxy]cyclobutanecarboxylic acid] was tested. Which IC50 did it give?
**A.** 2.02 µM

**Q.** With `O=c1cc(-c2ccc(Br)cc2O[C@H]2C[C@H](C(=O)O)C2)oc2c(Cl)ccc(O)c12` [Example B036-B, trans-3-[5-bromo-2-(8-chloro-5-hydroxy-4-oxo-chromen-2-yl)phenoxy]cyclobutanecarboxylic acid] as the compound, how does the IC50 read?
**A.** 0.407 µM

**Q.** Which IC50 does the source give for `Cc1ccc(-c2cc(=O)c3c(O)ccc(Cl)c3o2)c(O[C@H]2C[C@H](C(=O)O)C2)c1` [Example B037-B, Trans-3-[2-(8-chloro-5-hydroxy-4-oxo-chromen-2-yl)-5-methyl-phenoxy]cyclobutanecarboxylic acid] here?
**A.** 0.149 µM

**Q.** How did the IC50 turn out when `CCOc1ccc(-c2cc(=O)c3c(O)ccc(Cl)c3o2)c(O[C@H]2C[C@@H](C(=O)O)C2)c1` [Example B039-A, Cis-3-[2-(8-chloro-5-hydroxy-4-oxo-chromen-2-yl)-5-ethoxy-phenoxy]cyclobutanecarboxylic acid] was run?
**A.** 6.76 µM

**Q.** For `Cc1cc(-c2cc(=O)c3c(O)ccc(Cl)c3o2)c(O[C@H]2C[C@@H](C(=O)O)C2)cc1Br` [Example B040-A, cis-3-[5-bromo-2-(8-chloro-5-hydroxy-4-oxo-chromen-2-yl)-4-methyl-phenoxy]cyclobutanecarboxylic acid], which IC50 is on record?
**A.** 0.302 µM

**Q.** Which IC50 does the source give for `Cc1cc(-c2cc(=O)c3cccc(Cl)c3o2)c(O[C@H]2C[C@H](C(=O)NS(C)(=O)=O)C2)cc1Br` [Example B049-B, Trans-3-[5-bromo-2-(8-chloro-4-oxo-chromen-2-yl) 4-methyl-phenoxy]-N-methylsulfonyl-cyclobutanecarboxamide] here?
**A.** 8.74 µM

**Q.** For `COc1cc(O[C@H]2C[C@@H](C(=O)NS(C)(=O)=O)C2)c(-c2cc(=O)c3cccc(Cl)c3o2)cc1Br` [Example B055-A, Cis-3-[4-bromo-2-(8-chloro-4-oxo-chromen-2-yl)-5-methoxy-phenoxy]-N-methylsulfonyl-cyclobutanecarboxamide], which IC50 is on record?
**A.** 3.59 µM

**Q.** For `O=C(O)[C@@H]1C[C@H](Oc2cc(Br)ccc2-c2cc(=O)c3cccc(Cl)c3o2)CN1` [Example B075, (2S,4S)-4-[5-bromo-2-(8-chloro-4-oxo-chromen-2-yl)phenoxy]pyrrolidine-2-carboxylic acid], which IC50 is on record?
**A.** 0.774 µM

**Q.** With `COc1cccc(S(=O)(=O)N2C[C@@H](Oc3cc(C(F)(F)F)ccc3-c3cc(=O)c4cccc(Cl)c4o3)C[C@H]2C(=O)O)c1` [Example B079] as the compound, how does the IC50 read?
**A.** 1.52 µM

**Q.** For `COc1cc(O[C@H]2C[C@@H](C(=O)O)N(S(=O)(=O)c3ccccc3)C2)c(-c2cc(=O)c3cccc(Cl)c3o2)cc1OC` [Example B081], which IC50 is on record?
**A.** 3.11 µM

**Q.** For `O=C(O)[C@@H]1C[C@H](Oc2cc(OC(F)(F)F)ccc2-c2cc(=O)c3cccc(Cl)c3o2)CN1S(=O)(=O)c1ccccc1` [Example B085, (2S,4S)-1-(benzenesulfonyl)-4-[2-(8-chloro-4-oxo-chromen-2-yl)-5-(trifluoromethoxy)phenoxy]pyrrolidine-2-carboxylic acid], which IC50 is on record?
**A.** 4.57 µM

**Q.** How did the IC50 turn out when `O=c1cc(-c2ccc(Br)cc2OCCO[C@H]2C[C@H](C(=O)O)C2)oc2c(Cl)cccc12` [Example C003-B, tram-3-[2-[5-bromo-2-(8-chloro-4-oxo-chromen-2-yl)phenoxy]ethoxy]cyclobutanecarboxylic acid] was run?
**A.** 1.34 µM

same assay, conditions: read-out: IC50 (HBeAg level, HepDES19 primary screen assay); HepDES19 cells, 5 days compound incubation, HBeAg ELISA

**Q.** With `O=C(O)C1CC(COc2cc(Br)ccc2-c2cc(=O)c3cccc(Cl)c3o2)C1` (stereo in doubt) [Example B025-A, Cis-3-[[5-bromo-2-(8-chloro-4-oxo-chromen-2-yl)phenoxy]methyl]cyclobutanecarboxylic acid] as the compound, how does the IC50 read?
**A.** 4.92 µM
